Data set [1] has as its system PKB kinases. Nature of the data set: Association of PKB kinases with sucrose-loaded lipid vesicles containing inositol phospholipids. Type of data set: binding, sheep. The procedure: To assay association of PKB and PKB kinases with lipid vesicles and the effects of different lipids on the phosphorylation of PKB, the lipid vesicles were prepared by: sonicating dry lipid films into 0.2 M sucose; 20 mM KCl; 20 mM HEPES, pH 7.4 30° C.; 0.01% azide (to give 200 μM phosphatidylcholine, 150 μM phosphatidylserine, 20 μM phosphatidylethanolamine, 10 μM spingomylin plus the indicated concentrations of inositol lipids final in the assay. These were mixed with the relevant kinases in an assay buffer containing 1 mgml^−1 BSA; 0.12 M NaCl; 1 mM EGTA; 0.2 mM calcium; 1.5 mM MgCl2; 1 mM DTT; 0.01% azide; 5 mM KCl; 20 mM HEPES, pH 7.4, 30° C. (approx. 50 nM free calcium, all final concentrations in assay) with or without [γ^32P]-ATP (1 μM final concentration) and (EE)-PKB (2.5 μM final concentration). If the assays were to estimate associated of the kinases with the lipid vesicles then after 4 mins at 30° C. the assays were centrifuged (airfuge (Beckman) maximum speed for 30 mins). Aliquots of the supernatents were removed for assays or immunoblotting. […] Phosphorylation of PKB(s) were quantitated as described above. […]
Under the same assay conditions used for the PKB phosphorylation studies, we investigated the association of both the PKB kinases and PKB itself (FIG. 2C) with the lipid vesicles in these assays. […] Phosphorylation of PKB(s) was quantitated as described herein.

The target in the next data set is PKB kinases A-D. Nature of the data set: PtdIns lipid-dependent phosphorylation and activation of PKB by purified PKB kinases (lipid vesicle assay). In kind it is biochemical, sheep. The conditions noted are these: mixed lipid vesicles, (EE)-PKB 2.5 μM, [γ32P]-ATP; FIG. 2A/2B. The procedure:
Assays were run in 2 stages. The first stage was run with mixed lipid vesicles either with or without D-D-S/A-PtdIns(3,4,5)P3 (final concentration 5 μM) and in the presence or absence of PKB kinase A (6 nM), wild-type (EE)-PKB (2.5 μM) or T308A/S473A-(EE)-PKB) and [γ^32P]-ATP (50 μM). The assays were stopped and PKB proteins were immunoprecipitated with α(EE)-beads, washed then incubated with [γ^32P]-ATP (10 μM) and myelin basic protein (MBP; 7 μM) to determine the activity of the immobilized PKB. The results are from a single experiment and are represented as means±SE(n=3-5); four further experiments gave similar results. PKB kinases B, C and D gave very similar results.
Assays contained; a constant concentration of mixed lipid vesicles containing the indicated concentrations of inositol phospholipids, (EE)-PKB (2.5 μM), PKB kinase A (5 nM) and [γ^32P]-ATP (1 μM, total volume 12 μl). The data shown are pooled from 12 separate experiments and are means (n=3-6, their average se was 6%).
To assay association of PKB and PKB kinases with lipid vesicles and the effects of different lipids on the phosphorylation of PKB, the lipid vesicles were prepared by: sonicating dry lipid films into 0.2 M sucose; 20 mM KCl; 20 mM HEPES, pH 7.4 30° C.; 0.01% azide (to give 200 μM phosphatidylcholine, 150 μM phosphatidylserine, 20 μM phosphatidylethanolamine, 10 μM spingomylin plus the indicated concentrations of inositol lipids final in the assay. These were mixed with the relevant kinases in an assay buffer containing 1 mgml^−1 BSA; 0.12 M NaCl; 1 mM EGTA; 0.2 mM calcium; 1.5 mM MgCl2; 1 mM DTT; 0.01% azide; 5 mM KCl; 20 mM HEPES, pH 7.4, 30° C. (approx. 50 nM free calcium, all final concentrations in assay) with or without [γ^32P]-ATP (1 μM final concentration) and (EE)-PKB (2.5 μM final concentration). If the assays were to estimate associated of the kinases with the lipid vesicles then after 4 mins at 30° C. the assays were centrifuged (airfuge (Beckman) maximum speed for 30 mins). Aliquots of the supernatents were removed for assays or immunoblotting. The pellets were rinsed rapidly with assay buffer, recentrifuged and dissolved in SDS-sample buffer. Phosphorylation of PKB(s) were quantitated as described above. […]

Data set [2] has as its target (EE)-PKB, EE-tagged protein kinase B purified from SF9 cells (UniProt P31749).
Data set [3] concerns PKB kinases. Description: Phosphorylation of a water-soluble 30-mer peptide based on the PKB sequence around Thr308 by PKB kinases. In kind it is biochemical, sheep. The settings on record: not shown.
In data set [4] the target is (EE)-PKB, EE-tagged protein kinase B purified from SF9 cells, P31749.

This note sets out measurements from US6682920B1, “Compositions and methods for identifying PKB kinase inhibitors” (Onyx Pharmaceuticals, Inc., priority 1997, dated 2004).

Entries after “also recorded” stand apart in the source; their conditions may differ.

Sequence of (EE)-PKB, EE-tagged protein kinase B purified from SF9 cells, P31749 (P31749 whole entry, looked up): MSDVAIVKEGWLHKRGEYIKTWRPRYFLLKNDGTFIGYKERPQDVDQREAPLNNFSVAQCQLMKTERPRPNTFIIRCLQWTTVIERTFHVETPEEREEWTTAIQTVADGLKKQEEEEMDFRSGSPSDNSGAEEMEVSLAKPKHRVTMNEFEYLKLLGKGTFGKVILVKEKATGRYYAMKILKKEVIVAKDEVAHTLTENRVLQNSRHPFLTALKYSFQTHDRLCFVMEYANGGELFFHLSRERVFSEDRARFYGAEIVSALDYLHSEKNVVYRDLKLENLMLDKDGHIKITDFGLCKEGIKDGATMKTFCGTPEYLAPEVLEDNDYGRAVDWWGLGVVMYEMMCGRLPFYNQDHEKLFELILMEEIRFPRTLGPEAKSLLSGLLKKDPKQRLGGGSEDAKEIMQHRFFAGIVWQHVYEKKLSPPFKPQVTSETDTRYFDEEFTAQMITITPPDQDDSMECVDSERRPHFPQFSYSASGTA

As for `CCCCCCCCCCCCCCCC(=O)OC[C@H](COP(=O)(O)O[C@H]1[C@H](O)[C@@H](O)[C@H](OP(=O)(O)O)[C@@H](OP(=O)(O)O)[C@H]1O)OC(=O)CCCCCCCCCCCCCCC` [D-D-P/P-PtdIns(3,4)P2], the “association of PKB kinases with lipid vesicles containing the lipid” value in the data set on PKB kinases [1] (4 mins at 30° C., vesicles pelleted by centrifugation) is “associated with the lipid vesicles”.

For the molecule `CCCCC/C=C\C/C=C\C/C=C\C/C=C\CCCC(=O)OC(COC(=O)CCCCCCCCCCCCCCCCC)COP(=O)(O)OC1C(O)C(OP(=O)(O)O)C(OP(=O)(O)O)C(OP(=O)(O)O)C1O` [D-D-S/A-PtdIns(3,4,5)P3, (1-stearoyl, 2-arachidonyl) snphosphatidyl D-myo-inositol (3,4,5)-trisphosphate], the “PKB kinase phosphorylation/activation of PKB in the presence of the lipid” value (shortened to “PKB kinase phosphorylation/activation”) at PKB kinases A-D was “phosphorylate and activate; also recorded: equally effectively activated”. For the same molecule, the “molar percentage of the lipid in vesicles at which PKB kinases associated” value in the data set on PKB kinases [1] (very low molar percentages) was determined as 0.003%.

On to `CCCCC/C=C\C/C=C\C/C=C\C/C=C\CCCC(=O)OC(COC(=O)CCCCCCCCCCCCCCCCC)COP(=O)(O)OC1C(O)C(OP(=O)(O)O)C(OP(=O)(O)O)C(OP(=O)(O)O)C1O` [D-L-S/A-PtdIns(3,4,5)P3, (2-arachidonyl, 3-stearoyl) sn-phosphatidyl D-myoinositol(3,4,5)-trisphosphate], for which, on PKB kinases A-D, the “PKB kinase phosphorylation/activation” value is “equally effectively activated”.

Consider “PKB kinase A purified from sheep brain cytosol”, for which the “phosphorylation and activation of PKB (activation judged by myelin basic protein phosphorylation)” value in data set [2] is “All four activities phosphorylate and activate (as judged by mylein basic protein (MBP) phosphorylation) PKB in the presence of the biological stereoisomers of PtdIns(3,4,5)P3 or PtdIns(3,4)P2”.

For “phosphatidylinositol4,5-bisphosphate [PtdIns(4,5)P2]”, at PKB kinases A-D, the “PKB kinase phosphorylation/activation” value is “inactive against PKB”.

In the case of “phosphatidylinositol-3,4,5-triphosphate [PtdIns(3,4,5)P3]”, the “effect of the lipid on phosphorylation of 30-mer PKB Thr308 peptide” value in the data set on PKB kinases [3] is on record as “dramatically inhibited”.

Take “phosphatidylinositol-3,4-bisphosphate [PtdIns(3,4)P2]”: the “effect of the lipid on phosphorylation of 30-mer PKB Thr308 peptide” value with PKB kinases [3] is listed as “dramatically inhibited”. Moreover, at PKB kinases A-D, the “PKB kinase phosphorylation/activation” value is “phosphorylate and activate”.

B1: (EE)-II, N-terminally EE-tagged 55 kd PKB kinase (complete ORF of FIG. 3) expressed in cos-7 cells (protein)
chain: MARTTSQLYDAVPIQSSVVLCSCPSPSMVRSQTESSTPPGIPGGSRQGPAMDGTAAEPRPGAGSLQHAQPPPQPRKKRPEDFKFGKILGEGSFSTVVLARELATSREYAIKILEKRHIIKENKVPYVTRERDVMSRLDHPFFVKLYFTFQDDEKLYFGLSYAKNGELLKYIRKIGSFDETCTRFYTAEIVSALEYLHGKGIIHRDLKPENILLNEDMHIQITDFGTAKVLSPESKQARANSFVGTAQYVSPELLTEKSACKSSDLWALGCIIYQLVAGLPPFRAGNEYLIFQKIIKLEYDFPEKFFPKARDLVEKLLVLDATKRLGCEEMEGYGPLKAHPFFESVTWENLHQQTPPKLTAYLPAMSEDDEDCYGNYDNLLSQFGCMQVSSSSSSHSLSASDTGLPQRSGSNIEQYIHDLDSNSFELDLQFSEDEKRLLLEKQAGGNPWHQFVENNLILKMGPVDKRKGLFARRRQLLLTEGPHLYYVDPVNKVLKGEIPWSQELRPEAKNFKTFFVHTPNRTYYLMDPSGNAHKWCRKIQEVWRQRYQSHPDAAVQ
Regarding B1, in data set [4], the “PKB kinase activity ([32P] in PKB, autoradiogram)” value is “The protein with the intact protein kinase domain phosphorylated PKB in a PtdIns(3,4,5)P3-sensitive manner”.
